According to PubChem BioAssay (NCI):
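Dose response: 5 concentrations. Exposure: 48 h. Format: 96-well plates. Endpoint: linear interpolation; highest concentration if not reached. Abbreviation: GI50, concentration required for 50% inhibition of growth. TGI is the concentration that stops growth completely.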

Tests used:
Assay in all cases: growth of human tumour cells (NCI), 48 h
HCT-15 colon = test system: HCT-15 colon
HL-60(TB) leukemia = test system: HL-60(TB) leukemia
K-562 leukemia = test system: K-562 leukemia
NCI-H522 lung = test system: NCI-H522 lung
OVCAR-3 ovarian = test system: OVCAR-3 ovarian
RXF 393 renal = test system: RXF 393 renal
SF-539 CNS = test system: SF-539 CNS
SN12C renal = test system: SN12C renal
UACC-62 melanoma = test system: UACC-62 melanoma
HCC-2998 colon = test system: HCC-2998 colon

## COc1cc(O)ccc1C(=S)SC
HCT-15 colon
  TGI: > 100 µM
HL-60(TB) leukemia
  TGI: > 100 µM
K-562 leukemia
  TGI: > 100 µM
NCI-H522 lung
  TGI: > 100 µM
OVCAR-3 ovarian
  TGI: > 100 µM
RXF 393 renal
  TGI: > 100 µM
SF-539 CNS
  TGI: > 100 µM
SN12C renal
  TGI: 9.56 µM
UACC-62 melanoma
  TGI: > 100 µM

## O=C(c1ccccc1)C1N=NN(Cc2ccccc2[N+](=O)[O-])C1C(=O)c1ccccc1 (stereo not drawn)
HCC-2998 colon
  TGI: > 100 µM
HCT-15 colon
  TGI: > 100 µM
HL-60(TB) leukemia
  TGI: > 100 µM
K-562 leukemia
  TGI: > 100 µM
NCI-H522 lung
  TGI: > 100 µM
OVCAR-3 ovarian
  TGI: > 100 µM
RXF 393 renal
  TGI: > 100 µM
UACC-62 melanoma
  TGI: > 100 µM

## O=C(Nc1ccc(Cl)cc1C(F)(F)F)C(=O)Nn1c(=S)[nH]c2ccccc2c1=O
HCC-2998 colon
  TGI: > 100 µM
HCT-15 colon
  TGI: > 100 µM
HL-60(TB) leukemia
  TGI: > 100 µM
K-562 leukemia
  TGI: > 100 µM
OVCAR-3 ovarian
  TGI: > 100 µM
RXF 393 renal
  TGI: > 100 µM
SF-539 CNS
  TGI: > 100 µM
SN12C renal
  TGI: > 100 µM
UACC-62 melanoma
  TGI: > 100 µM

## c1cnc2c(c1)-n1cccc1C1(CCCCC1)NN2
HCC-2998 colon
  TGI: > 100 µM
HCT-15 colon
  TGI: > 100 µM
HL-60(TB) leukemia
  TGI: > 100 µM
K-562 leukemia
  TGI: > 100 µM
NCI-H522 lung
  TGI: > 100 µM
OVCAR-3 ovarian
  TGI: > 100 µM
SF-539 CNS
  TGI: > 100 µM
SN12C renal
  TGI: > 100 µM

## O=c1c(Cc2ccc3c(c2)OCO3)nnc2sc(-c3cc(F)c(Cl)cc3Cl)nn12
HCT-15 colon
  GI50: 70.6 µM
  TGI: > 100 µM
K-562 leukemia
  GI50: 42.8 µM
  TGI: > 100 µM
NCI-H522 lung
  GI50: 33.4 µM
  TGI: > 100 µM
OVCAR-3 ovarian
  GI50: 38 µM
  TGI: > 100 µM
RXF 393 renal
  GI50: 42.7 µM
  TGI: > 100 µM
SN12C renal
  GI50: 62.6 µM
  TGI: > 100 µM
UACC-62 melanoma
  GI50: 75.8 µM
  TGI: > 100 µM

## O=C1c2cccc3cccc(c23)C(=O)N1CCCCCN1CCN(CCN=c2cc3n(-c4ccc(Cl)cc4)c4ccccc4nc-3cc2Nc2ccc(Cl)cc2)CC1
HCC-2998 colon
  GI50: 8.93 µM
  TGI: 31.4 µM
HCT-15 colon
  GI50: 9.28 µM
  TGI: 37.5 µM
HL-60(TB) leukemia
  GI50: 6.91 µM
  TGI: 21.3 µM
K-562 leukemia
  GI50: 6.92 µM
  TGI: 33.3 µM
OVCAR-3 ovarian
  GI50: 1.07 µM
  TGI: 3.4 µM
RXF 393 renal
  GI50: 11.2 µM
  TGI: > 50 µM
SF-539 CNS
  GI50: 12.1 µM
  TGI: 31 µM
SN12C renal
  GI50: 10.4 µM
  TGI: 26.4 µM
UACC-62 melanoma
  GI50: 7.5 µM
  TGI: 20.5 µM

## CC(C)(C)C#COC(=O)c1ccccc1
HCC-2998 colon
  TGI: > 100 µM
HCT-15 colon
  TGI: > 100 µM
HL-60(TB) leukemia
  TGI: > 100 µM
K-562 leukemia
  TGI: > 100 µM
NCI-H522 lung
  TGI: > 100 µM
OVCAR-3 ovarian
  TGI: > 100 µM
SF-539 CNS
  TGI: > 100 µM
SN12C renal
  TGI: > 100 µM
UACC-62 melanoma
  TGI: > 100 µM

## Cc1cc(=O)[nH]c(NNC(C#N)c2cccc([N+](=O)[O-])c2)n1 (stereo not drawn)
HCT-15 colon
  TGI: > 100 µM
HL-60(TB) leukemia
  TGI: > 100 µM
K-562 leukemia
  TGI: > 100 µM
NCI-H522 lung
  TGI: > 100 µM
OVCAR-3 ovarian
  TGI: > 100 µM
RXF 393 renal
  TGI: > 100 µM
SF-539 CNS
  TGI: > 100 µM
SN12C renal
  TGI: > 100 µM
UACC-62 melanoma
  TGI: > 100 µM

## COc1c2ccoc2nc2c(OC)c(OCC(O)C(C)(C)O)ccc12 (stereo not drawn)
HCC-2998 colon
  TGI: > 100 µM
HCT-15 colon
  TGI: > 100 µM
HL-60(TB) leukemia
  TGI: > 100 µM
K-562 leukemia
  TGI: > 100 µM
NCI-H522 lung
  TGI: > 100 µM
OVCAR-3 ovarian
  TGI: > 100 µM
SF-539 CNS
  TGI: > 100 µM
SN12C renal
  TGI: > 100 µM
UACC-62 melanoma
  TGI: > 100 µM

## O=C(Nc1sc2c(c1C(=O)O)CCCC2)c1ccco1
HCT-15 colon
  GI50: 30.6 µM
  TGI: > 50 µM
HL-60(TB) leukemia
  GI50: > 50 µM
  TGI: > 50 µM
K-562 leukemia
  GI50: 23.9 µM
  TGI: > 50 µM
NCI-H522 lung
  GI50: > 50 µM
  TGI: > 50 µM
OVCAR-3 ovarian
  GI50: > 50 µM
  TGI: > 50 µM
RXF 393 renal
  GI50: > 50 µM
  TGI: > 50 µM
SF-539 CNS
  GI50: 47.5 µM
  TGI: > 50 µM
SN12C renal
  GI50: 8.63 µM
  TGI: 42 µM
UACC-62 melanoma
  GI50: > 50 µM
  TGI: > 50 µM

## CC(C)Cc1cnc(CC(C)C)c(=O)[nH]1
HCC-2998 colon
  TGI: > 100 µM
HCT-15 colon
  TGI: > 100 µM
K-562 leukemia
  TGI: > 100 µM
OVCAR-3 ovarian
  TGI: > 100 µM
RXF 393 renal
  TGI: > 100 µM
SN12C renal
  TGI: > 100 µM
UACC-62 melanoma
  TGI: > 100 µM

## Cc1cc(Cl)ccc1NC(=O)CCCC(=O)C1C/C(=N/O)CC/C1=N\O (stereo not drawn)
HCC-2998 colon
  TGI: > 100 µM
HCT-15 colon
  TGI: > 100 µM
HL-60(TB) leukemia
  TGI: > 100 µM
K-562 leukemia
  TGI: > 100 µM
NCI-H522 lung
  TGI: > 100 µM
OVCAR-3 ovarian
  TGI: > 100 µM
SF-539 CNS
  TGI: > 100 µM
SN12C renal
  TGI: > 100 µM
UACC-62 melanoma
  TGI: > 100 µM

## CC(=O)[CH-]C(C)=O.CC(=O)[CH-]C(C)=O.[O-]c1ccccc1.[O-]c1ccccc1.[Ti+4]
HCC-2998 colon
  GI50: > 100 µM
  TGI: > 100 µM
HCT-15 colon
  GI50: > 100 µM
  TGI: > 100 µM
HL-60(TB) leukemia
  GI50: > 100 µM
  TGI: > 100 µM
K-562 leukemia
  GI50: > 100 µM
  TGI: > 100 µM
NCI-H522 lung
  GI50: > 100 µM
  TGI: > 100 µM
SF-539 CNS
  GI50: > 100 µM
  TGI: > 100 µM
UACC-62 melanoma
  GI50: > 100 µM
  TGI: > 100 µM

## O=c1c(Cc2ccccc2)c(O)cc2n1CCC2
HCC-2998 colon
  TGI: > 100 µM
HCT-15 colon
  TGI: > 100 µM
K-562 leukemia
  TGI: > 100 µM
NCI-H522 lung
  TGI: > 100 µM
OVCAR-3 ovarian
  TGI: > 100 µM
RXF 393 renal
  TGI: > 100 µM
SF-539 CNS
  TGI: > 100 µM
SN12C renal
  TGI: > 100 µM
UACC-62 melanoma
  TGI: > 100 µM

## O=c1c(-c2ccc3c(c2)OCO3)coc2c3c(ccc12)OCO3
HCC-2998 colon
  TGI: > 100 µM
HCT-15 colon
  TGI: > 100 µM
HL-60(TB) leukemia
  TGI: > 100 µM
K-562 leukemia
  TGI: > 100 µM
NCI-H522 lung
  TGI: 37.5 µM
OVCAR-3 ovarian
  TGI: > 100 µM
SF-539 CNS
  TGI: 58.7 µM
SN12C renal
  TGI: > 100 µM
UACC-62 melanoma
  TGI: > 100 µM

## CCOc1c(Br)cc(Br)cc1C=C(C#N)C#N
HCC-2998 colon
  TGI: > 10 µM
HCT-15 colon
  TGI: > 10 µM
HL-60(TB) leukemia
  TGI: 1.19 µM
K-562 leukemia
  TGI: > 10 µM
OVCAR-3 ovarian
  TGI: > 10 µM
RXF 393 renal
  TGI: > 10 µM
SF-539 CNS
  TGI: 6.21 µM
SN12C renal
  TGI: > 10 µM
UACC-62 melanoma
  TGI: > 10 µM
